From ChEMBL document CHEMBL5518186, “Discovery of the cereblon-recruiting tubulin PROTACs effective in overcoming Taxol resistance in vitro and in vivo” (Eur J Med Chem, 2024)
Active and inactive are the calls of the source. The calls are words filed in the database; no cut-off is given here.

How the values were obtained:
[1] = target: T1, Protein cereblon-alpha tubulin (Homo sapiens) (UniProt P0DPH7+P68366+Q71U36+P68363+Q9BQE3+Q6PEY2+A6NHL2+Q9NY65+Q96SW2); assay: (§1) Protac activity at CRBN/alpha-tubulin in human A549 cells assessed as reduction in alpha-tubulin level incubated for 48 hrs by immunoblotting analysis; type: cell-based
[2] = target: T2, Protein cereblon/Tubulin beta (Homo sapiens) (UniProt P68371+Q9H4B7+Q13509+P04350+Q3ZCM7+P07437+Q13885+Q9BVA1+Q9BUF5+Q96SW2+A6NNZ2); assay: (§2) Protac activity at CRBN/beta-tubulin in human A549/Taxol cells assessed as reduction in beta-tubulin level incubated for 48 hrs by immunoblotting analysis; type: cell-based
[3] = target: Protein cereblon/Tubulin beta; assay: as §2; type: cell-based
[4] = target: T3, Protein cereblon/Tubulin beta-3 chain (Homo sapiens, UniProt Q13509+Q96SW2); assay: Protac activity at CRBN/beta3-tubulin in human A549 cells assessed as reduction in beta3-tubulin level incubated for 48 hrs by immunoblotting analysis; type: cell-based
[5] = target: T2, Protein cereblon/Tubulin beta (Homo sapiens); assay: (§3) Protac activity at CRBN/beta-tubulin in human A549 cells assessed as reduction in beta-tubulin level incubated for 48 hrs by immunoblotting analysis; type: cell-based
[6] = target: Protein cereblon/Tubulin beta; assay: as §3; type: cell-based
MGC-803 = assay: Antiproliferative activity against human MGC-803 cells incubated for 72 hrs; type: functional, cell-based; conditions: MGC-803, 72 h
[7] = target: T2, Protein cereblon/Tubulin beta (Homo sapiens); assay: Protac activity at CRBN/beta-tubulin in human A549 cells assessed as reduction in beta-tubulin level at 0.01 to 1 uM incubated for 48 hrs by immunoblotting analysis; type: cell-based; conditions: dose 0.01-1 µM
[8] = target: T3, Protein cereblon/Tubulin beta-3 chain; assay: Protac activity at CRBN/beta3-tubulin in human A549 cells assessed as reduction in beta3-tubulin level at 0.01 to 1 uM incubated for 48 hrs by immunoblotting analysis; type: cell-based; conditions: dose 0.01-1 µM
Target sequence in this assay (Q13509 whole entry, looked up): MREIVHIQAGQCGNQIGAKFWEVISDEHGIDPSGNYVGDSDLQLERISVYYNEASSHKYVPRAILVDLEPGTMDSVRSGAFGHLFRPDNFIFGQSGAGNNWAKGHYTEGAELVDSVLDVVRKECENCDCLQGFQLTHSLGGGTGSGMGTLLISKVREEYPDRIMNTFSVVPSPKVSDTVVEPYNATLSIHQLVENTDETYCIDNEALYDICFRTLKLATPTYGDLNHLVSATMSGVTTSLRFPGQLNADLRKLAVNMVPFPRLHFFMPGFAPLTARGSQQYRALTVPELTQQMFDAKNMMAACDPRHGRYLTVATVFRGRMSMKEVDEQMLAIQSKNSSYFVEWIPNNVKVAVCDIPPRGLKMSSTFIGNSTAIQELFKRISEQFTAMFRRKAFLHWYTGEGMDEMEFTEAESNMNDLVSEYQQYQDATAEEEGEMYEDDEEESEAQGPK
Target sequence in this assay (Q96SW2 whole entry, looked up): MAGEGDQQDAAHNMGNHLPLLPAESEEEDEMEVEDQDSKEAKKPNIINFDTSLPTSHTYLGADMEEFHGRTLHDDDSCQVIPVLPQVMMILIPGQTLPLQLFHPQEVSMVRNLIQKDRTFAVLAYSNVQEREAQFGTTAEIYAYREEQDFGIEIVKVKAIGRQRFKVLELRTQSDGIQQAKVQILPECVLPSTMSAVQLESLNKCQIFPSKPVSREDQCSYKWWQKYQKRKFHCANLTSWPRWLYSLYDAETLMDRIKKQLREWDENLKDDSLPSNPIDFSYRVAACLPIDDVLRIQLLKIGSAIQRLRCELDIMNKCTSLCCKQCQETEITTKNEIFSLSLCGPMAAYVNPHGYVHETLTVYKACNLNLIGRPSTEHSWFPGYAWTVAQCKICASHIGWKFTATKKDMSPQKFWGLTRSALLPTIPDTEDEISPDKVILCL

MCF7 = assay: Antiproliferative activity against human MCF7 cells incubated for 72 hrs; type: functional, cell-based; conditions: MCF7, 72 h
[9] = target: T1, Protein cereblon-alpha tubulin (Homo sapiens); assay: (§4) Protac activity at CRBN/alpha-tubulin in human A549/Taxol cells assessed as reduction in alpha-tubulin level incubated for 48 hrs by immunoblotting analysis; type: cell-based
[10] = target: Protein cereblon-alpha tubulin; assay: as §4; type: cell-based
[11] = target: T3, Protein cereblon/Tubulin beta-3 chain; assay: Protac activity at CRBN/beta3-tubulin in human A549/Taxol cells assessed as reduction in beta3-tubulin level incubated for 48 hrs by immunoblotting analysis; type: cell-based
HeLa = assay: Antiproliferative activity against human HeLa cells incubated for 72 hrs; type: functional, cell-based
A549 = assay: Antiproliferative activity against human A549 cells incubated for 72 hrs; type: functional, cell-based; conditions: A549, 72 h
HepG2 = assay: Antiproliferative activity against human HepG2 cells incubated for 72 hrs; type: functional, cell-based; conditions: HepG2, 72 h
U-937 = assay: Antiproliferative activity against human U-937 cells incubated for 72 hrs; type: functional, cell-based; conditions: U-937, 72 h
[12] = target: T1, Protein cereblon-alpha tubulin (Homo sapiens); assay: Protac activity at CRBN/alpha-tubulin in human A549 cells assessed as reduction in alpha-tubulin level at 0.01 to 1 uM incubated for 48 hrs by immunoblotting analysis; type: cell-based; conditions: dose 0.01-1 µM
[13] = target: Protein cereblon-alpha tubulin; assay: as §1; type: cell-based
[14] = target: T4, Estrogen receptor (Homo sapiens) (UniProt P03372); assay: Induction of ER degradation (unknown origin)
T4 sequence (whole entry): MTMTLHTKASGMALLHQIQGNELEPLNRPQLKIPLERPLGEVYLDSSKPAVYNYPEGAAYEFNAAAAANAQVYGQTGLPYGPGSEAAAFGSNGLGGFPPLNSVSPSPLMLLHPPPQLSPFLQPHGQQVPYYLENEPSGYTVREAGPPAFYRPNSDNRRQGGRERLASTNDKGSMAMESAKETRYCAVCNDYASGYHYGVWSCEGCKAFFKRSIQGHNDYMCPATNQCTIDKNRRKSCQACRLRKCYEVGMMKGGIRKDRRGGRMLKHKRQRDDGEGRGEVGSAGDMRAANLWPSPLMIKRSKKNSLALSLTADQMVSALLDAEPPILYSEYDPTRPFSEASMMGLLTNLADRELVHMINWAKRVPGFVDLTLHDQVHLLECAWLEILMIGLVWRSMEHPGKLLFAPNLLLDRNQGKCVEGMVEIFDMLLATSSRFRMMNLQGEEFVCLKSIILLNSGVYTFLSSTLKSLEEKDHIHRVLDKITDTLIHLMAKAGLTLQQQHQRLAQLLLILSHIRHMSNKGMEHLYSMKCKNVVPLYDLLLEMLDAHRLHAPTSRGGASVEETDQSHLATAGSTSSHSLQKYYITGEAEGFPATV

| Structure (SMILES) | IC50 (MGC-803) | IC50 (MCF7) | IC50 (HeLa) | IC50 (A549) | IC50 (HepG2) | IC50 (U-937) | other results |
| --- | --- | --- | --- | --- | --- | --- | --- |
| COc1ccc(/C=C\c2cc(OC)c(OC)c(OC)c2)cc1OC(=O)CCCCCNc1cccc2c1C(=O)N(C1CCC(=O)NC1=O)C2=O (centres undefined) | 9 nM | 17 nM | 23 nM | 19 nM | 7 nM | 6 nM | Activity [1]: Dose-Dependent Effect; Activity [2]: Dose-Dependent Effect; DC50 [3]: 52 nM; Activity [4]: Dose-Dependent Effect; DC50 [4]: 294 nM; Activity [5]: Dose-Dependent Effect; DC50 [6]: 165 nM; Activity [7]: Active; Activity [8]: Active; Activity [9]: Dose-Dependent Effect; DC50 [10]: 114 nM; Activity [11]: Dose-Dependent Effect; Activity [12]: Active |
| COc1ccc(/C=C\c2cc(OC)c(OC)c(OC)c2)cc1OC(=O)CCCCOCCc1cn(CCCCC(=O)Nc2cccc3c2C(=O)N(C2CCC(=O)NC2=O)C3=O)nn1 (centres undefined) | 175 nM | 263 nM | 1510 nM | 374 nM | 213 nM | 800 nM |  |
| COc1ccc(/C=C\c2cc(OC)c(OC)c(OC)c2)cc1OC(=O)CN1C(=O)CCC(N2Cc3c(N)cccc3C2=O)C1=O (centres undefined) | > 5000 nM | > 5000 nM | > 5000 nM | > 5000 nM | > 5000 nM | > 5000 nM |  |
| COc1ccc(/C=C\c2cc(OC)c(OC)c(OC)c2)cc1OC(=O)CCCOCCc1cn(CCCCC(=O)Nc2cccc3c2C(=O)N(C2CCC(=O)NC2=O)C3=O)nn1 (centres undefined) | > 5000 nM | > 5000 nM | > 5000 nM | > 5000 nM | > 5000 nM | > 5000 nM |  |
| COc1ccc(/C=C\c2cc(OC)c(OC)c(OC)c2)cc1OCc1cn(CCCCC(=O)Nc2cccc3c2C(=O)N(C2CCC(=O)NC2=O)C3=O)nn1 (centres undefined) | > 5000 nM | 4060 nM | > 5000 nM | > 5000 nM | > 5000 nM | 1620 nM |  |
| COc1ccc(/C=C\c2cc(OC)c(OC)c(OC)c2)cc1OC(=O)CCCCN1C(=O)CCC(N2Cc3c(N)cccc3C2=O)C1=O (centres undefined) | > 5000 nM | > 5000 nM | > 5000 nM | > 5000 nM | > 5000 nM | > 5000 nM |  |
| COc1ccc(/C=C\c2cc(OC)c(OC)c(OC)c2)cc1OC(=O)CCCCNc1cccc2c1C(=O)N(C1CCC(=O)NC1=O)C2=O (centres undefined) | 8 nM | 17 nM | 23 nM | 12 nM | 6 nM | 22 nM | Activity [1]: Dose-Dependent Effect; DC50 [13]: 883 nM; Activity [2]: Dose-Dependent Effect; DC50 [3]: 9 nM; Activity [4]: Dose-Dependent Effect; Activity [5]: Dose-Dependent Effect; DC50 [6]: 35 nM; Activity [7]: Active; Activity [8]: Active; Activity [9]: Dose-Dependent Effect; DC50 [10]: 105 nM; Activity [11]: Dose-Dependent Effect; DC50 [11]: 18 nM; Activity [12]: Active |
| COc1ccc(/C=C\c2cc(OC)c(OC)c(OC)c2)cc1OC(=O)CCCCOCCc1cn(CCCCCC(=O)Nc2cccc3c2C(=O)N(C2CCC(=O)NC2=O)C3=O)nn1 (centres undefined) | 195 nM | 417 nM | 1310 nM | 466 nM | 242 nM | 8590 nM |  |
| COc1ccc(/C=C\c2cc(OC)c(OC)c(OC)c2)cc1OC(=O)CCCOCCc1cn(CCCCCC(=O)Nc2cccc3c2C(=O)N(C2CCC(=O)NC2=O)C3=O)nn1 (centres undefined) | 3100 nM | 2980 nM | > 5000 nM | 3900 nM | 2880 nM | > 5000 nM |  |
| COc1ccc(/C=C\c2cc(OC)c(OC)c(OC)c2)cc1OC(=O)CCNc1cccc2c1C(=O)N(C1CCC(=O)NC1=O)C2=O (centres undefined) | > 5000 nM | > 5000 nM | > 5000 nM | > 5000 nM | > 5000 nM | > 5000 nM |  |
| COc1ccc(/C=C\c2cc(OC)c(OC)c(OC)c2)cc1OC(=O)CNc1cccc2c1C(=O)N(C1CCC(=O)NC1=O)C2=O (centres undefined) | > 5000 nM | > 5000 nM | > 5000 nM | > 5000 nM | > 5000 nM | > 5000 nM |  |
| COc1ccc(/C=C\c2cc(OC)c(OC)c(OC)c2)cc1OCc1cn(CCCCCC(=O)Nc2cccc3c2C(=O)N(C2CCC(=O)NC2=O)C3=O)nn1 (centres undefined) | > 5000 nM | > 5000 nM | > 5000 nM | > 5000 nM | > 5000 nM | > 5000 nM |  |
| COc1ccc(/C=C\c2cc(OC)c(OC)c(OC)c2)cc1OCc1cn(CCCC(=O)Nc2cccc3c2C(=O)N(C2CCC(=O)NC2=O)C3=O)nn1 (centres undefined) | 1240 nM | > 5000 nM | > 5000 nM | 2760 nM | 1600 nM | > 5000 nM |  |
| COc1ccc(/C=C\c2cc(OC)c(OC)c(OC)c2)cc1OC(=O)CCCN1C(=O)CCC(N2Cc3c(N)cccc3C2=O)C1=O (centres undefined) | > 5000 nM | > 5000 nM | > 5000 nM | > 5000 nM | > 5000 nM | > 5000 nM |  |
| O=C1CC[C@H](N2Cc3cc(N4CCN(CC5CCN(c6ccc([C@@H]7c8ccc(O)cc8CC[C@@H]7c7ccccc7)cc6)CC5)CC4)ccc3C2=O)C(=O)N1 |  |  |  |  |  |  | Activity [14]: < 89% |
| COc1ccc(/C=C\c2cc(OC)c(OC)c(OC)c2)cc1OC(=O)CCCCCOCCc1cn(CCCC(=O)Nc2cccc3c2C(=O)N(C2CCC(=O)NC2=O)C3=O)nn1 (centres undefined) | 1530 nM | 2380 nM | 1900 nM | 1830 nM | 2300 nM | > 5000 nM |  |
| COc1ccc(/C=C\c2cc(OC)c(OC)c(OC)c2)cc1OC(=O)CCCCCOCCc1cn(CCCCC(=O)Nc2cccc3c2C(=O)N(C2CCC(=O)NC2=O)C3=O)nn1 (centres undefined) | 1400 nM | 2350 nM | > 5000 nM | 2440 nM | 1920 nM | > 5000 nM |  |
| COc1ccc(/C=C\c2cc(OC)c(OC)c(OC)c2)cc1OC(=O)CCCCOCCc1cn(CCCC(=O)Nc2cccc3c2C(=O)N(C2CCC(=O)NC2=O)C3=O)nn1 (centres undefined) | 61 nM | 247 nM | 1270 nM | 544 nM | 128 nM | 4320 nM |  |
| COc1ccc(/C=C\c2cc(OC)c(OC)c(OC)c2)cc1OC(=O)CCN1C(=O)CCC(N2Cc3c(N)cccc3C2=O)C1=O (centres undefined) | > 5000 nM | > 5000 nM | > 5000 nM | > 5000 nM | > 5000 nM | > 5000 nM |  |
| COc1ccc(/C=C\c2cc(OC)c(OC)c(OC)c2)cc1OC(=O)CCCCCN1C(=O)CCC(N2Cc3c(N)cccc3C2=O)C1=O (centres undefined) | > 5000 nM | > 5000 nM | > 5000 nM | > 5000 nM | > 5000 nM | > 5000 nM |  |
| COc1ccc(/C=C\c2cc(OC)c(OC)c(OC)c2)cc1OC(=O)CCCCCOCCc1cn(CCCCCC(=O)Nc2cccc3c2C(=O)N(C2CCC(=O)NC2=O)C3=O)nn1 (centres undefined) | 1790 nM | 2300 nM | > 5000 nM | 1760 nM | 1990 nM | > 5000 nM |  |
| COc1ccc(/C=C\c2cc(OC)c(OC)c(OC)c2)cc1OC(=O)CCCOCCc1cn(CCCC(=O)Nc2cccc3c2C(=O)N(C2CCC(=O)NC2=O)C3=O)nn1 (centres undefined) | 2350 nM | 4230 nM | > 5000 nM | 3750 nM | 3120 nM | > 5000 nM |  |
